Results published in patent publication US20210308120A1, “Use of Amitriptyline for Blocking Brain Hemichannels and Method for Potentiating its Effect in Vivo” (THERANEXUS, priority 2015, published 2021).

Columns and labels:
mice subjected to FST = assay: Forced Swim Test (FST); format: in vivo, mouse; details: 2nd 3-min period
Description: The FST is the most used rodent model for screening antidepressants (Porsolt et al, 1977). Mice were dropped individually in a glass cylinder (25 cm high, 9 cm diameter) filled with 10 cm 25° C. water. The experiment was recorded with a camcorder, placed in front of the glass cylinders. Video were scored at a later time by an experimenter blind to the treatments. The indices of depression-related behavior are the immobility time, the swimming time and the climbing time.
FST test evaluates the despair behavior which is commonly reversed by antidepressants. During FST, the swimming time of each mouse was measured on each 1-min period, on 1st and 2nd 3-min periods.

[1] = system: neuropathic mice (cuff model, allodynia); assay: Mechanical allodynia, von Frey test in sciatic nerve cuff model; format: in vivo, mouse
Description: Paw withdrawal thresholds of mice treated with either amitriptyline 6 mg/kg alone (AMIT 6) or amitriptyline 12 mg/kg alone (AMIT 12) are also shown (D). FIG. 10 (E) represents area under curve analysis.
Area under curve analysis are shown (B).
Neuropathic pain was induced to adult male C57BL/6J mice (Charles River, L'Arbresle, France) by cuffing the main branch of the right sciatic nerve (For detailed description and video illustration: Yalcin et al. 2014, J Vis Exp 89:e51608). Surgeries were performed under ketamine (68 mg/kg)/xylazine (10 mg/kg) intraperitoneal (i.p.) anesthesia (Centravet, Tadden, France). The common branch of the right sciatic nerve was exposed and a cuff of PE-20 polyethylene tubing (Harvard Apparatus, Les Ulis, France) of standardized length (2 mm) was unilaterally inserted around it (Cuff group). The shaved skin was closed using suture.
Injections were done once a day during the 17 first days of treatment, in the afternoon. As a single dose per day was ineffective, treatment was then done twice a day, morning and afternoon, from the 8 last days of treatment.
Mechanical allodynia was tested using von Frey hairs and results were expressed in grams (For detailed description and video illustration: Yalcin et al. 2014, J Vis Exp 89:e51608). Tests were done during the morning, starting at least 2 hours after lights on. Mice were placed in clear Plexiglas boxes (7 cm×9 cm×7 cm) on an elevated mesh screen. Calibrated von Frey filaments (Bioseb, Vitrolles, France) were applied to the plantar surface of each hindpaw until they just bent, in a series of ascending forces up to the mechanical threshold. Filaments were tested five times per paw and the paw withdrawal threshold was defined as the lower of two consecutive filaments for which three or more withdrawals out of the five trials were observed.
Mice were subjected to sciatic nerve cuffing and then tested with the von Frey test to evaluate allodynia quantified as pressure threshold.
Mice were subjected to sciatic nerve cuffing and then tested with the von Frey test to evaluate allodynia quantified as pressure threshold. Neuropathic mice, characterized by a decrease of pressure threshold after surgery, were then treated during 25 days and tested by the von Frey test during this period.

Cx43 hemichannels = target: T1, Cx43 hemichannels (Mus musculus, UniProt P23242); assay: Hemichannel activity by ethidium bromide uptake in LPS-treated mouse cortical astrocyte cultures; format: cell-based; details: LPS 1 μg/mL and amitriptyline 5, 10 and 20 μM, 24 hours
T1 construct: Astrocyte cultures were prepared from cortex of rats and mice as previously described; endogenous in cells; host or cells: secondary cultures of mouse cortical astrocytes, LPS-treated
T1 sequence (P23242 whole entry): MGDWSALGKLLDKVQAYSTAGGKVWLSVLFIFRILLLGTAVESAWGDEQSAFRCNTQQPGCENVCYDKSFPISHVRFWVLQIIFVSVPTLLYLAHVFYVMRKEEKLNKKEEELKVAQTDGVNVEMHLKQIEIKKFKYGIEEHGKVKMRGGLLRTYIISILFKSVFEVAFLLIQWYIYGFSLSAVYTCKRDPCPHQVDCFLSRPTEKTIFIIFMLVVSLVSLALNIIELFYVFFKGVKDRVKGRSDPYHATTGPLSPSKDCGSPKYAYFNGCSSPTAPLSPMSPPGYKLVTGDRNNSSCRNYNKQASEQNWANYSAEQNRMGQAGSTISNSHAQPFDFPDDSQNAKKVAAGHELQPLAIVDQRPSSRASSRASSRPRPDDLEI
Description: Astrocyte cultures were prepared from cortex of rats and mice as previously described (Meme et al., 2006). Cells were seeded on polyornithine coated 35 mm dishes (5×10^5 cells/dish) or into 100-mm diameter plastic dishes at the density of 3×10^6 cells/dish. After 8-10 days, when cells grown into 35 mm in diameter plastic culture dishes have reached confluence, 1 μM of cytosine-arabinoside was added to the culture medium. In addition, when cells grown into 100 mm plastic culture dishes reached confluence, they were harvested with trypsin-EDTA. Then, cells were re-plated (2×10^5 cells per well), as secondary cultures, on glass coverslips placed inside 24-round-well plate. Finally, they were grown to confluence and cytosine-arabinoside was added. Medium was changed twice a week for all cells until the experiments were carried out. Hemichannel activity was evaluated in secondary cultures of cortical astrocytes by Ethidium Bromide (EtBr) uptake as already published (Orellana et al, 2011). 24 h before experiment, cells were pretreated or not with 1 μg/ml LPS known to open Cx43 HeC. The day of experiment, cells were first preincubated in HEPES buffer solution. Then, cells were exposed to 5 μM EtBr for 10 min at room temperature. Cells were then washed with the same buffer before fixation with 4% paraformaldehyde in PBS. Fixed cells were examined at 40× with a confocal laser-scanning microscope. Stacks of 10 consecutive confocal images taken at 0.49 μm intervals were acquired. For each experimental condition, 6 images were captured and then analyzed with Image J program (NIH software). LPS was added to mouse cortical astrocytic cultures during 24 hours to open Cx43 hemichannels and amitriptyline was also added during the same time to evaluate its action on hemichannel activity, quantified by cell uptake of ethidium bromide.

[2] = Pharmacokinetics of amitriptyline/mefloquine in plasma and brain of mice (LC-MS); format: in vivo, mouse; details: amitriptyline 6, 12 mg/kg, mefloquine 0.1, 0.3, 1 mg/kg i.p., 18 days, 2 hours after injection
Description: Data are presented as mean±SEM.
Adult male C57BL/6J mice (Charles River, L'Arbresle, France) were used. Mice were kept in collective cages for habituation to the facility for one week before experimental testing with food and water ad libitum. Mice were maintained on a light/dark cycle of 12 hours with light onset at 8h00 and with a controlled temperature of 21° C.±1° C.
Injections were done twice.
On day 18th of treatment, mice received the morning injection and samplings were done 2 hours after the injection. Mice were anesthetized just before sampling (ketamine 68 mg/kg, xylazine 10 mg/kg) and blood was collected by intracardiac puncture (Vacuette tubes, with lithium/heparin gel). The mouse was then decapitated, and the brain extracted and fast frozen in dry ice.
Vacuette tubes with blood were centrifugated (3000 rpm, 20 min), plasma recovered and stored at −80° C. until shipping in dry ice.

For CN(C)CCC=C1c2ccccc2CCc2ccccc21 [amitriptyline, 3-(5,6-dihydrodibenzo[2,1-b:2′,1′-f][7]annulen-11-ylidene)-N,N-dimethylpropan-1-amine], the Swimming time (mice subjected to FST; amitriptyline 12 mg/kg per os alone) was “not significant”, the Swimming time (mice subjected to FST; amitriptyline 24 mg/kg per os, single) was “significant increase of the swimming time” and the “Paw withdrawal threshold (von Frey)” value ([1]; amitriptyline 6 mg/kg i.p. chronic, alone) was “no changes of paw withdrawal”. The “Paw withdrawal threshold (von Frey)” value ([1]; amitriptyline 12 mg/kg i.p. chronic, in comparison with amitriptyline 6 mg/kg) was “significant increase of the paw withdrawal threshold from day 32 to day 34”, the “Effective equivalent dose of amitriptyline when administered in combination with mefloquine” value ([1]; relative to active dose of amitriptyline alone) was “about 0.5” and the “HC activity (ethidium bromide uptake) after LPS-induced opening” value (Cx43 hemichannels) was “reversed this increase at the three tested doses”. For the same compound, the “Concentrations in blood and brain tissue” value [2] was “dose-dependent”.
